{"source": "paper PMC3163471", "about": "(MedChemComm, 2011)", "data": [{"tested_on": "breast cancer cell lines", "experiment": "Antiproliferative activity, cell line not given", "type": "cell-based, human", "conditions": "text on structure-activity relationship, Tables 1 and 2", "values": [{"substance": "H-Arg-[3-amino-3(1-napthyl)-propionic acid]-Tyr-OH [Compound 6]", "Antiproliferative activity in words, compared with compound 5 or the parent": "loss of activity"}, {"substance": "H-Arg-[3-amino-3(1-napthyl)-propionic acid]-Asp-OH [Compound 7]", "Antiproliferative activity in words, compared with compound 5 or the parent": "loss of activity"}, {"substance": "H-Lys-[3-amino-3(biphenyl)-propionic acid]-Phe-OH [Compound 11]", "Antiproliferative activity in words, compared with compound 5 or the parent": "loss of activity"}, {"substance": "H-Arg-[3-amino-3(biphenyl)-propionic acid]-Phe-OH [Compound 10]", "Antiproliferative activity in words, compared with compound 5 or the parent": "retained the activity and specificity"}, {"substance": "H-Arg-Pro-[3-amino-3(1-napthyl)-propionic acid]-Tyr-OH [Compound 13]", "Antiproliferative activity in words, compared with compound 5 or the parent": "activity was lost"}]}]}
